Where two headings read alike, the source gives them in different places. Positions of bridges follow the written chain, without caps; N, C: chain ends. Non-standard residues stand in square brackets, D forms with d. Residues, ends and D or L forms follow the SMILES beside them. Chains are numbered I, II in the order given. ξ: configuration not given here. *: point of attachment. C(fluorescein) = cysteine carrying a fluorescein label; Palmitoyl = CCCCCCCCCCCCCCCC(=O)*; PEG4 = NCCOCCOCCOCCOCCC(=O)O; Nle = CCCC[C@H](N)C(=O)O; Aib = CC(C)(N)C(=O)O; ξK = NCCCCC(N)C(=O)O
Key:
mouse mast MC/9 cells = test: Inhibition of IL10-dependent growth of MC/9 cells, MTT assay, 48 hours; assay type: cell-based
Description: (§1) Cells were exposed to compounds for 48 hours and cell number was determined with the help of MTT assay.
(§2) Cells were exposed to IL10-HF-1 for 48 hours and cell number was determined with the help of MTT assay.
(§3) Peptides designed to mimic conserved regions of the receptor sequences were tested for the ability to inhibit IL10 and IFN-gamma signaling. Inhibition of IL10 signaling was tested in a mouse mast cell line MC/9. […] Abrogation of IFN-gamma signaling or STAT1 activation causes cell death in this cell line.

[1] = test system: MDA-MB-231 breast cancer cells; test: Inhibition of IFN-gamma-dependent growth of MDA-MB-231 cells, MTT assay, 48 hours; assay type: cell-based; conditions: 48 h
Description: as §1, §2, §3

[2] = target: T1, recombinant human IFN-gamma (Homo sapiens, UniProt P01579); test: Microscale thermophoresis binding to IFN-gamma; conditions: result in words
T1 sequence (P01579 24-161 limits assumed): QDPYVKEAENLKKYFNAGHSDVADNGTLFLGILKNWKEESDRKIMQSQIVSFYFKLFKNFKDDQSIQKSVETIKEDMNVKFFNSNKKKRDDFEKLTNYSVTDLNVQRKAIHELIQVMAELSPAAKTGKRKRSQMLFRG
Description: To evaluate whether synthetic helix F analogs could interact with the corresponding cytokine, fluorescent derivatives of helix F were synthesized. The helix F analogs are described below.

[3] = Table 4, compounds mimicking conserved regions of IL10R1, cell line not given, read-out: GI50

CCCC[C@H](NC(=O)[C@H](Cc1ccc(O)cc1)NC(=O)[C@H](C)NC(=O)[C@H](CCC(=O)O)NC(=O)[C@@H](NC(=O)[C@H](Cc1ccc(O)cc1)NC(=O)[C@H](CC(N)=O)NC(=O)[C@@H](NC(=O)[C@H](Cc1ccccc1)NC(=O)[C@@H](NC(=O)[C@H](CC(=O)O)NC(=O)[C@H](Cc1ccccc1)NC(=O)[C@H](CCC(=O)O)NC(=O)[C@H](CO)NC(=O)C(C)(C)NC(C)=O)[C@@H](C)CC)[C@@H](C)CC)[C@@H](C)CC)C(=O)NCCOCCOCCOCCOCCC(=O)NCCCCC(NC(=O)CCOCCOCCOCCOCCNC(=O)[C@H](CCCC)NC(=O)[C@H](Cc1ccc(O)cc1)NC(=O)[C@H](C)NC(=O)[C@H](CCC(=O)O)NC(=O)[C@@H](NC(=O)[C@H](Cc1ccc(O)cc1)NC(=O)[C@H](CC(N)=O)NC(=O)[C@@H](NC(=O)[C@H](Cc1ccccc1)NC(=O)[C@@H](NC(=O)[C@H](CC(=O)O)NC(=O)[C@H](Cc1ccccc1)NC(=O)[C@H](CCC(=O)O)NC(=O)[C@H](CO)NC(=O)C(C)(C)NC(C)=O)[C@@H](C)CC)[C@@H](C)CC)[C@@H](C)CC)C(N)=O (stereo partly shown) [IL10-HF-1] (I: Ac-[Aib]SEFDIFINYIEAY[Nle][PEG4][ξK]-NH2 / II: Ac-[Aib]SEFDIFINYIEAY[Nle][PEG4]; amide I:17-II:C)
GI50 (mouse mast MC/9 cells; FIG. 2, 48 hours exposure, MTT assay, read-out: GI50, IL10 dependent growth of MC/9): 0.05 µM

CCCCCCCCCCCCCCCC(=O)N[C@@H](CC(C)C)C(=O)N[C@@H](Cc1ccc(O)cc1)C(=O)N[C@H](C(=O)N[C@@H](CCCNC(=N)N)C(=O)N[C@@H](CCCNC(=N)N)C(=O)N[C@@H](CCCNC(=N)N)C(=O)N[C@@H](CCCCN)C(=O)N[C@@H](CCCCN)C(=O)N[C@@H](CC(C)C)C(=O)N1CCC[C@H]1C(=O)N[C@@H](CO)C(=O)N[C@H](C(=O)N[C@@H](CC(C)C)C(=O)N[C@@H](CC(C)C)C(=O)N[C@@H](Cc1ccccc1)C(=O)N[C@@H](CCCCN)C(=O)N[C@@H](CCCCN)C(N)=O)C(C)C)C(C)C [IL10R1-1, Pal-LYVRRRKKLPSVLLFKK-NH2] (Palmitoyl-LYVRRRKKLPSVLLFKK-NH2)
GI50 (mouse mast MC/9 cells; 48 h): 1 µM | GI50 [1]: 0.025 µM

CCCCCCCCCCCCCCCC(=O)NCCCC[C@H](N)C(=O)N[C@@H](CCCCN)C(=O)N[C@@H](CC(C)C)C(=O)N1CCC[C@H]1C(=O)N[C@@H](CO)C(=O)N[C@H](C(=O)N[C@@H](CC(C)C)C(=O)N[C@@H](CC(C)C)C(=O)N[C@@H](Cc1ccccc1)C(=O)N[C@@H](CCCCN)C(=O)N[C@@H](CCCCN)C(=O)N1CCC[C@H]1C(=O)N[C@@H](CO)C(N)=O)C(C)C [IL10R1-3, ε-Pal-KKLPSVLLFKKPS-NH2] (H-K(Palmitoyl)KLPSVLLFKKPS-NH2; N-terminus assumed)
GI50 (mouse mast MC/9 cells; 48 h): 0.05 µM | GI50 [1]: 2.5 µM

CCCCCCCCCCCCCCCC(=O)N[C@@H](CC(C)C)C(=O)N[C@@H](Cc1c[nH]cn1)C(=O)NCC(=O)N[C@@H](CO)C(=O)N[C@H](C(=O)N[C@@H](CC(=O)O)C(=O)N[C@@H](CO)C(=O)NCC(=O)N[C@@H](Cc1ccccc1)C(=O)NCC(=O)N[C@@H](CO)C(=O)N[C@H](C(=O)N[C@@H](CCCCN)C(=O)N1CCC[C@H]1C(=O)N[C@@H](CO)C(=O)N[C@@H](CC(C)C)C(=O)N[C@@H](CCC(N)=O)C(=O)N[C@H](C(=O)O)[C@@H](C)O)[C@@H](C)O)[C@@H](C)O [IL10R1-5, Pal-LHGSTDSGFGSTKPSLQT] (Palmitoyl-LHGSTDSGFGSTKPSLQT-OH; N-terminus and C-terminus assumed)
GI50 (mouse mast MC/9 cells; 48 h): 1 µM

CCCCCCCCCCCCCCCC(=O)NCCCC[C@H](N)C(=O)N[C@@H](CC(C)C)C(=O)N[C@H](C(=O)N[C@H](C(=O)N[C@@H](CC(C)C)C(=O)N1CCC[C@H]1C(=O)N[C@@H](CC(C)C)C(=O)N[C@H](C(=O)N[C@@H](CO)C(=O)N[C@@H](CO)C(=O)N[C@@H](CC(C)C)C(=O)N[C@@H](CCC(N)=O)C(=O)N[C@@H](CO)C(=O)N[C@@H](CO)C(=O)N[C@@H](CCC(=O)O)C(N)=O)[C@@H](C)CC)[C@@H](C)O)C(C)C [IL10R1-7, ε-Pal-KLVTLPLISSLQSSE-NH2] (H-K(Palmitoyl)LVTLPLISSLQSSE-NH2; N-terminus assumed)
GI50 (mouse mast MC/9 cells; 48 h): 5 µM

CCCCCCCCCCCCCCCC(=O)NCCCC[C@H](N)C(=O)N1CCC[C@H]1C(=O)N1CCC[C@H]1C(=O)N[C@@H](C)C(=O)N[C@@H](CC(C)C)C(=O)N[C@@H](C)C(=O)N[C@@H](CCCCN)C(=O)NCC(=O)N[C@@H](Cc1ccc(O)cc1)C(=O)N[C@@H](CC(C)C)C(=O)N[C@@H](CCCCN)C(=O)N[C@@H](CCC(N)=O)C(N)=O [IL10R1-8, ε-Pal-KPPALAKGYLKQ-NH2] (H-K(Palmitoyl)PPALAKGYLKQ-NH2; N-terminus assumed)
GI50 (mouse mast MC/9 cells; 48 h): 5 µM

CCCCCCCCCCCCCCCC(=O)NCCCC[C@@H](NC(=O)[C@@H](CC(C)C)NC(=O)[C@@H](Cc1c[nH]cn1)NC(=O)CNC(=O)[C@@H](CO)NC(=O)[C@H](NC(=O)[C@@H](CC(=O)O)NC(=O)[C@@H](CO)NC(=O)CNC(=O)[C@@H](Cc1ccccc1)NC(=O)CNC(=O)[C@@H](CO)NC(=O)[C@H](NC(=O)[C@@H](CCCCN)NC(=O)[C@H]1CCCN1C(=O)[C@@H](CO)NC(=O)[C@@H](CC(C)C)NC(=O)[C@@H](CCC(N)=O)NC(=O)[C@H](NC(=O)[C@@H](CCC(=O)O)NC(=O)[C@@H](CCC(=O)O)NC(C)=O)[C@H](C)O)[C@H](C)O)[C@H](C)O)C(N)=O [IL10R1-14] (Ac-[dE][dE][dT][dQ][dL][dS][dP][dK][dT][dS]G[dF]G[dS][dD][dT][dS]G[dH][dL][dK](Palmitoyl)-NH2; C-terminus assumed)
GI50 (mouse mast MC/9 cells; [3]): 1 µM

CCCCCCCCCCCCCCCC(=O)NCCCC[C@@H](NC(=O)[C@@H](CC(C)C)NC(=O)[C@@H](Cc1c[nH]cn1)NC(=O)CNC(=O)[C@@H](CO)NC(=O)[C@H](NC(=O)[C@@H](CC(=O)O)NC(=O)[C@@H](CO)NC(=O)CNC(=O)[C@@H](Cc1ccccc1)NC(=O)CNC(=O)[C@@H](CO)NC(=O)[C@H](NC(=O)[C@@H](CCCCN)NC(=O)[C@H]1CCCN1C(=O)[C@@H](CO)NC(=O)[C@@H](CC(C)C)NC(=O)[C@@H](CCC(N)=O)NC(=O)[C@H](NC(=O)[C@@H](CCC(=O)O)NC(C)=O)[C@H](C)O)[C@H](C)O)[C@H](C)O)C(N)=O [IL10R1-15] (Ac-[dE][dT][dQ][dL][dS][dP][dK][dT][dS]G[dF]G[dS][dD][dT][dS]G[dH][dL][dK](Palmitoyl)-NH2; C-terminus assumed)
GI50 (mouse mast MC/9 cells; [3]): > 5 µM

CCCCCCCCCCCCCCCC(=O)NCCCC[C@@H](N)C(=O)N[C@@H](C(=O)N[C@H](CCC(N)=O)C(=O)N[C@H](CC(C)C)C(=O)N[C@H](CO)C(=O)N1CCC[C@@H]1C(=O)N[C@H](CCCCN)C(=O)N[C@@H](C(=O)N[C@H](CO)C(=O)NCC(=O)N[C@H](Cc1ccccc1)C(=O)NCC(=O)N[C@H](CO)C(=O)N[C@H](CC(=O)O)C(=O)N[C@@H](C(=O)N[C@H](CO)C(=O)NCC(=O)N[C@H](Cc1c[nH]cn1)C(=O)N[C@H](CC(C)C)C(N)=O)[C@H](C)O)[C@H](C)O)[C@H](C)O [IL10R1-17, ε-Pal-KTQLSPKTSGFGSDTSGHL-NH2] (H-[dK](Palmitoyl)[dT][dQ][dL][dS][dP][dK][dT][dS]G[dF]G[dS][dD][dT][dS]G[dH][dL]-NH2; N-terminus assumed)
GI50 (mouse mast MC/9 cells; [3]): > 5 µM

CCCCCCCCCCCCCCCC(=O)NCCCC[C@H](N)C(=O)N[C@@H](CC(C)C)C(=O)N[C@H](C(=O)N[C@H](C(=O)N[C@@H](CC(C)C)C(=O)N1CCC[C@H]1C(=O)N[C@@H](CC(C)C)C(=O)N[C@H](C(=O)N[C@@H](CO)C(=O)N[C@@H](CO)C(=O)N[C@@H](CC(C)C)C(=O)N[C@@H](CCC(N)=O)C(N)=O)[C@@H](C)CC)[C@@H](C)O)C(C)C [IL10R1-27, ε-Pal-KLVTLPLISSLQ-NH2] (H-K(Palmitoyl)LVTLPLISSLQ-NH2; N-terminus assumed)
GI50 (mouse mast MC/9 cells; 48 h): > 5 µM

Ac-C(Fluo)VQRKAIHELIQVx^13AELSPAAKT-NH2 ({Ac-C(fluorescein)}-VQRKAIHELIQV[Nle]AELSPAAKT-NH2) [IFNG-HF-6]
Affinity for IFN-gamma [2]: unexpectedly high affinity

Reference: patent US9475839B2, “Peptide-based inhibitor of interleukin-10 or interferon-gamma signaling” (THE UNITED STATES OF AMERICA, AS REPRESENTED BY THE …, priority 2010, dated 2016)
